# Conditions: buffer; pH 7.4; 200.0 µM
row,SMILES,solubility kinetic [µg/mL]
1,CN(c1ccccc1)S(=O)(=O)c1ccc2[nH]c(=O)[nH]c2c1,16.6
2,Cc1ccc(NC(=O)N2CCCC2c2cccs2)cc1 (stereo not drawn),> 43
3,Cc1ccccc1C(=O)NC1CCCCCCC1,30.2
4,CCC1(C)NC(=O)N(CC(=O)Nc2cc(C)on2)C1=O (stereo not drawn),> 42
5,Oc1c(Cl)cc(Cl)cc1CNc1nccs1,2.9
6,CSC1=NC2(CCCCC2)CC12C=CC(=O)C=C2,36.2
7,O=S(=O)(c1ccc(Cl)s1)N1CCNCC1,> 40
8,N#CCOC(=O)/C=C/c1ccc2c(c1)OCO2,4.6
9,CCOC(=O)Cn1c(=O)n(Cc2ccc(C)cc2)c(=O)c2cccnc21,1.4
10,O=C(c1ccc(Cl)cc1)N1CCOc2ccccc21,40.3
11,COC(=O)c1c(C)[nH]c(C(=O)OCC(=O)c2c(N)n(CC(C)C)c(=O)n(C)c2=O)c1C,14
12,CCOC(=O)C1CCCN(C(=O)CNC(=O)c2ccc(Br)o2)C1 (stereo not drawn),> 58.1
13,Cc1c(CCOC(=O)c2ccc(Cl)cc2Cl)sc[n+]1CC(=O)c1ccc(Br)cc1.[Br-],40.6
14,CNC(=O)c1c(NC(=O)c2ccco2)sc2c1CCCC2,2.7
15,Cc1ccc(Nc2nc(C)nc3c2oc2ccccc23)cc1,0.3
16,O=C(COc1ccc(F)c(Cl)c1)Nc1ccc(N2CCOCC2)cc1,5.4
17,COc1ccc(CCC(=O)NC(C)c2ccccc2)cc1OC (stereo not drawn),> 47
18,CCC1Sc2ccccc2N(CC(=O)NC2CCCCC2)C1=O (stereo not drawn),> 49.9
19,Cc1ccc(O)c(NC(=O)c2cc(-c3ccco3)on2)c1,1.2
20,CSc1ccc(C(=O)C2CCCN(C)C2)cc1 (stereo not drawn),> 37.4

row,SMILES,solubility kinetic [µg/mL]
1,CC#CC(=O)NC1CCCN(C2Cc3ccccc3C2)C1 (stereo not drawn),> 42.4
2,Cc1cc(C)c(-c2cc(C)nc3ncnn23)c(C)c1,> 37.8
3,COc1ccc(NC(=O)c2ccc3nc(C)sc3c2)cc1,15.4
4,O=C(Nc1cccc(S(=O)(=O)N2CCCC2)c1)c1cncc(Br)c1,60.4
5,O=C1NC(=O)N(c2ccccc2)C(=O)/C1=C\c1ccccc1[N+](=O)[O-],> 50.6
6,Cc1cccc(-n2c(O)c(C=Nc3cccc(O)c3)c3ccccc3c2=O)n1,0.8
7,CCCCN(CC)CCNC(=O)c1cc2c(=O)[nH]c3ccccc3c2n1C,43.9
8,CC(C)Oc1ccc(C(=O)NC2=NCCS2)cc1,23.1
9,CC(=O)Nc1ccc(NC(=O)c2ccccc2Nc2ccccc2)cc1,4.4
10,Cc1ccc(C)c(NC(=O)C2CC3CCC2C3)c1 (stereo not drawn),10.6
11,CC(C)C[C@H](N)c1nnc(SCc2ccc(Cl)cc2)o1.Cl,> 52.2
12,COc1ccc2cc(C(=O)N3CCN(c4cccc(C)c4C)CC3)[nH]c2c1,1.2
13,O=C1/C(=C\c2ccsc2)NC(=S)N1c1ccccc1,4.5
14,O=C1/C(=C/c2ccccn2)SC(=S)N1CCc1ccccc1,0.4
15,CC(NC(=O)COC(=O)c1ccc2c(c1)OCO2)c1ccccc1 (stereo not drawn),14.9
16,Cc1cccc(C)c1Nc1nnc(SCC(=O)NCCCN2CCCC2=O)s1,> 62.9
17,CN(CC1COc2ccccc2O1)C(=O)CSc1ncccn1 (stereo not drawn),> 49.7
18,COc1ccc(NC(=S)Nc2cccc(C)n2)cc1,< 0.2
19,Cc1ccccc1OCC(O)CNC1CCCC1.Cl (stereo not drawn),38.2
20,O=C(O)c1ccccc1NS(=O)(=O)c1ccc2ccccc2c1,> 49.1

row,SMILES,solubility kinetic [µg/mL]
1,O=C(O)c1cc(-c2ccccc2)n(-c2ccc(F)cc2)n1,> 42.3
2,Cc1ccnc(NC(=O)c2ccc3[nH]c(=O)c(=O)[nH]c3c2)c1,2.2
3,COc1ccc(NC(=O)CCOc2ccc(C)cc2)c(OC)c1,29.6
4,O=S(=O)(Nc1ccc2c(c1)OCCO2)c1cccc(F)c1,> 46.4
5,CCOC(=O)N1CCN(C(=S)Nc2ccccc2C(C)C)CC1,> 50.3
6,O=C(O)c1ccccc1C(=O)NC1CCCCNC1=O (stereo not drawn),> 41.4
7,CCOc1ccc(S(=O)(=O)Nc2ccc3c(c2)OCO3)cc1,45.4
8,CCOC(=O)Cc1csc(NS(=O)(=O)c2ccc(C(F)(F)F)cc2)n1,> 59.2
9,O=C(COC(=O)CNC(=O)C1CCCCC1)Nc1ccc(F)c([N+](=O)[O-])c1,> 57.2
10,CNc1snc(C)c1C(=O)OC(C)C(=O)Nc1ccc(F)cc1 (stereo not drawn),> 50.6
11,CC(C)N(C(=O)COC(=O)c1ccc([N+](=O)[O-])cc1)c1ccccc1,1.1
12,COc1cc(OC)c(C(=O)Nc2cccc3ccccc23)cc1OC,< 0.7
13,Cc1ccc(S(=O)(=O)/N=C(/Nc2ccc([N+](=O)[O-])cc2[N+](=O)[O-])c2ccccc2)cc1,5.9
14,COc1ccc(N2C(=O)CCC2=O)c(OC)c1,33.8
15,Cc1ccc(NC(=O)Cn2nc(C)c(S(=O)(=O)N(C)C)c2C)cc1,> 52.6
16,Cc1cc(C)nc(/N=C(\N)Nc2ccc(S(N)(=O)=O)cc2)n1,44.6
17,O=C(c1ccc([N+](=O)[O-])cc1)N(c1ccccn1)c1ccccn1,> 48
18,O=c1[nH]c(/C=C\c2cccc(C(F)(F)F)c2)nc(O)c1[N+](=O)[O-],> 49.1
